Test results from patent publication US20250011404A1, “TARGETING APOE ENHANCES T-CELL KILLING IN CANCER IMMUNOTHERAPY” (Children's National Medical Center, priority 2021, published 2025).
“Also recorded” adds a separate entry of the source.

How the values were obtained:
[1] = tested on: Mouse bone-marrow derived dendritic cells (DC); experiment: Cytokine production of TLR7/8 activated bone-marrow derived dendritic cells, multiplex ELISA; type: cell-based; settings: 48 hr
Procedure: Mouse bone-marrow derived dendritic cells (DC) were cultured in the presence of the indicated concentrations of apoE agonist COG133 for 48 hr. COG133 increased the production of anti-inflammatory IL-10, GM-CSF, and chemokines MCP-1 and MCP-3 by TLR7/8 activated DC while decreasing the levels of proinflammatory cytokines IL-1α, IL-1β and IL-23 in a dose-dependent manner as determined by multiplex ELISA.
Cell culture supernatant was collected after centrifuge at 1,200 rpm for 10 min at 4° C. The concentrations of the following immune molecules were determined using the mouse Cytokine & Chemokine 36-plex ProcartaPlex Panel, a magnetic bead-based multiplex immunoassay (Thermo Scientific) following our previous protocol(19). Briefly, cell culture supernatant samples were mixed with antibody-linked polystyrene beads on a 96-well plate and incubated at room temperature (RT) for 2 h on an orbital shaker at 500 rpm. After washing, plates were incubated with biotinylated detection antibody for 30 min at RT. Plates were then washed twice and then labeled beads were resuspended in streptavidin-PE. Each sample was measured in duplicate along with standards (8-point dilutions) and the buffer control. Plates were read using a Luminex Bio-plex 200 system (Bio-Rad Corp.) for quantitative analysis.

[2] = tested on: naïve C57/BL6 splenocytes co-cultured with immunogenic B16 tumor cells; experiment: IFNγ ELISA, naïve splenocytes co-cultured with Myc-inhibited immunogenic B16 tumor cells; type: cell-based, mouse
Procedure: To further investigate the influence of tumor secreted apoE on immune cell function, immunogenic B16 tumor cells (B16 cells treated with Myc inhibitors (0.25 μM BET+0.25 μM JQ1 for 4 days) were irradiated at 60 Gray and co-cultured with naïve C57/BL6 splenocytes in the presence of either apoE mimetic COG133 at 0.3, 3 and 9 μM or anti-APOE blocking antibody at 1, 10 and 30 μg/ml concentrations. Prior work has shown the immunogenic effect of treating cancer cells with Myc inhibitors and irradiation. IFNγ production was quantified by ELISA at 48 h. Splenocytes produced high levels of IFNγ when co-cultured with Myc-inhibited immunogenic B16 cells as shown in FIGS. 3A-3C. Exposure of these cells to apoE mimetic COG133 repressed IFNγ production (6-fold reduction) (FIG. 3A), while the presence of Anti-APOE antibody enhanced IFNγ production (3-fold increase) (FIG. 3B). We also tested IFNγ production from vaccinated splenocytes following co-culture with treated and untreated B16 cells in the presence of COG 133. […] In addition to IFNγ, we also quantified other cytokine/chemokines using ProcartaPlex multiplex immunoassay. […]
WT and apoE^−/− mice or WT and lrp8^−/− mice, were inoculated with either WT B16 or apoE^−/− B16 cells, with anti-CTLA4 antibody on day 0. […] Readings were measured at 450 nm using the EnSpire 2300 Multilabel plate reader (Perkin Elmer, Waltham, Massachusetts, US).

Substance: COG133: a fragment of apoE peptide, which competes with the apoE holoprotein for binding the LDL receptors and acts as an apoE mimetic
- IL-1α, IL-1β and IL-23 levels of activated DC ([1]; dose dependent): suppressed; also recorded: decreasing
- secretion of anti-inflammatory cytokine IL-10 from activated DC ([1]; dose dependent): induced secretion
- production of IL-10, GM-CSF, MCP-1 and MCP-3 by TLR7/8 activated DC ([1]; indicated concentrations, multiplex ELISA (FIG. 16)): increased
- splenocyte production of IFNγ in presence of COG133 ([2]; naïve and vaccinated splenocytes + BET/JQ1 treated B16 cells (FIG. 3A)): markedly reduced
- IFNγ production, reduction ([2]; naïve splenocytes + Myc-inhibited irradiated B16 cells, COG133 at 0.3, 3 and 9 μM, ELISA at 48 h): 6 fold
